Reference: ChEMBL document CHEMBL6121021, “Design and Synthesis of Topoisomerases-Histone Deacetylase Dual Targeted Quinoline-Bridged Hydroxamates as Anticancer Agents” (J Med Chem, 2025)
The source made the active and inactive calls. The rule behind the calls is not given here.

Key:
[1] = target: DNA topoisomerase 2-alpha (Homo sapiens, UniProt P11388); assay: Inhibition of human Topo II-alpha-mediated decatenation of kDNA at 100 uM incubated for 30 mins
[2] = target: T1, DNA topoisomerase 1 (Homo sapiens) (UniProt P11387); assay: Inhibition of human Topo I-mediated relaxation of supercoiled DNA preincubated for 30 mins followed by proteinase K addition measured after 30 mins by gel electrophoresis; conditions: time 60.0 min
T1 sequence (whole entry): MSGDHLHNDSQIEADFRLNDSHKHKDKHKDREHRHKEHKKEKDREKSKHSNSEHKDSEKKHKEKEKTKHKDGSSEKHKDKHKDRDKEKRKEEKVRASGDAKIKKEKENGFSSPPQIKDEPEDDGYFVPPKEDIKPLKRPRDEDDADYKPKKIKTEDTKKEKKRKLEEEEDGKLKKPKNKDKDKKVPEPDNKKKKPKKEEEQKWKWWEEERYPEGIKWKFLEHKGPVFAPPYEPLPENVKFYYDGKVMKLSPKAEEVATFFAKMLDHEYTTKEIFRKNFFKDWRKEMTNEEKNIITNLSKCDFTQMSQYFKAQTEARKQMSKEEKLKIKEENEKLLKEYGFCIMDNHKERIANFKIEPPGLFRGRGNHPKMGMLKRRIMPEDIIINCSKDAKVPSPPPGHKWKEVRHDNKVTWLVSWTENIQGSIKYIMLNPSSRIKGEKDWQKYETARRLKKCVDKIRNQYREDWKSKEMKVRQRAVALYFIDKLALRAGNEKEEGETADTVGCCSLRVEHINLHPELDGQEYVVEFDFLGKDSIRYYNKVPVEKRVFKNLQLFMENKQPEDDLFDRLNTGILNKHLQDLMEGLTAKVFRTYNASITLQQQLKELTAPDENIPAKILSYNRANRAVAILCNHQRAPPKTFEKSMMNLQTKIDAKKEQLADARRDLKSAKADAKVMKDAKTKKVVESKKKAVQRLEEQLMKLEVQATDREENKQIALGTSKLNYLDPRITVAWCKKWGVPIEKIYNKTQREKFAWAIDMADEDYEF

Supercoiled DNA = assay: Binding affinity to supercoiled DNA (unknown origin) assessed as DNA intercalation measured after 30 mins by gel electrophoresis; type: nucleic-acid assay
[3] = target: T2, Protein deacetylase HDAC6 (Homo sapiens, UniProt Q9UBN7); assay: Inhibition of HDAC6 (unknown origin) using acetylated-peptide substrate by fluorometric assay
T2 sequence (Q9UBN7 whole entry): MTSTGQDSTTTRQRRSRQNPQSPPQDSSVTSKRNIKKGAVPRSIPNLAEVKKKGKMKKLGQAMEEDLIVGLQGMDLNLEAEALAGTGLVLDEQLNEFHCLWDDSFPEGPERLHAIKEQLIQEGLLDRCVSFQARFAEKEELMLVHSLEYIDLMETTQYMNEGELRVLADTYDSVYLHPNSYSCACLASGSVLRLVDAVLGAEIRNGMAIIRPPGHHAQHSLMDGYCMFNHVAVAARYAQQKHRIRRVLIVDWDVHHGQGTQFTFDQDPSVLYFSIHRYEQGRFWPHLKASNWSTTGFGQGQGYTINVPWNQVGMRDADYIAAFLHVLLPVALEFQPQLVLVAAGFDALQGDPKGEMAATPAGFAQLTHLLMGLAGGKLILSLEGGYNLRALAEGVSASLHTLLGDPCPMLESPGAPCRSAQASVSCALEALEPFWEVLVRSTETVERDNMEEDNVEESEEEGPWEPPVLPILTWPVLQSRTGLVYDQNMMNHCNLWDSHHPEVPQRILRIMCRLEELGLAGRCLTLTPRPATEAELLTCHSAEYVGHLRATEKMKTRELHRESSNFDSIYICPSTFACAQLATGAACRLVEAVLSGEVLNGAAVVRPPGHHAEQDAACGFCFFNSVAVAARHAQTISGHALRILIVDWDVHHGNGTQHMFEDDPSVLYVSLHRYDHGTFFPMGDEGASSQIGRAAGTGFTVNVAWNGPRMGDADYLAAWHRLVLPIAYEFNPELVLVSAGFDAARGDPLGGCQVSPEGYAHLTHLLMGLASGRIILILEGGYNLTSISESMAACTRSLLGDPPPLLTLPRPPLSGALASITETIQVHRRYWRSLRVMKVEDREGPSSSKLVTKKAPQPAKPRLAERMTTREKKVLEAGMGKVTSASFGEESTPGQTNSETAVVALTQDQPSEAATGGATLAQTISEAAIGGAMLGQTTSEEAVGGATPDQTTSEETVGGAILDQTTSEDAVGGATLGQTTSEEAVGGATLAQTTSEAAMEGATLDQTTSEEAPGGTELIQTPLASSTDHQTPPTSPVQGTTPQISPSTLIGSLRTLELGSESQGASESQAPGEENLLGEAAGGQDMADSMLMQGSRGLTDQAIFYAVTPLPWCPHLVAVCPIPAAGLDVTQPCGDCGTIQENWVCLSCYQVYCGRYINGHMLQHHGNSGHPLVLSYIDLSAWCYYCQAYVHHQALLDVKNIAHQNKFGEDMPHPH

MDA-MB-231 [4] = assay: cells; type: functional, cell-based; conditions: Homo sapiens, MDA-MB-231, 48 h
MCF7 = assay: cells; type: functional, cell-based; conditions: Homo sapiens, MCF7, 48 h
HT-29 = assay: cells; type: functional, cell-based; conditions: Homo sapiens, HT-29, 48 h
A549 [5] = assay: Anti-cancer activity against human A549 3D cell culture model assessed as inhibition of 3D culture initiation at sub- IC50 incubated for 21 days with replacement of medium containing compound on every seventh day; type: functional, cell-based; conditions: time 21.0 day
A549 [6] = assay: Anti-cancer activity against human A549 3D cell culture model at sub- IC50 incubated for 17 days with replacement of medium containing compound on every third day; type: functional, cell-based; conditions: time 17.0 day
A549 [7] = assay: Induction of ROS generation in human A549 cells incubated for 48 hrs by DCFH-DA staining based analysis; type: functional, cell-based
A549 [8] = assay: Induction of ROS generation in human A549 cells incubated for 48 hrs by Cell Rox red staining based flow cytometry; type: functional
A549 [9] = assay: Effect on mitochondrial membrane permeability in human A549 cells assessed as decrease in red to green fluorescence ratio at sub-IC50 incubated for 48 hrs by JC-1 staining based analysis; type: functional, cell-based
MDA-MB-231 [10] = assay: Anti-cancer activity against human MDA-MB-231 cells assessed as increase in let7a mRNA level by qPCR analysis; type: functional, cell-based
A549 [11] = assay: cells; conditions: Homo sapiens, A549, 48 h

Chain of DNA topoisomerase 2-alpha (P11388 whole entry): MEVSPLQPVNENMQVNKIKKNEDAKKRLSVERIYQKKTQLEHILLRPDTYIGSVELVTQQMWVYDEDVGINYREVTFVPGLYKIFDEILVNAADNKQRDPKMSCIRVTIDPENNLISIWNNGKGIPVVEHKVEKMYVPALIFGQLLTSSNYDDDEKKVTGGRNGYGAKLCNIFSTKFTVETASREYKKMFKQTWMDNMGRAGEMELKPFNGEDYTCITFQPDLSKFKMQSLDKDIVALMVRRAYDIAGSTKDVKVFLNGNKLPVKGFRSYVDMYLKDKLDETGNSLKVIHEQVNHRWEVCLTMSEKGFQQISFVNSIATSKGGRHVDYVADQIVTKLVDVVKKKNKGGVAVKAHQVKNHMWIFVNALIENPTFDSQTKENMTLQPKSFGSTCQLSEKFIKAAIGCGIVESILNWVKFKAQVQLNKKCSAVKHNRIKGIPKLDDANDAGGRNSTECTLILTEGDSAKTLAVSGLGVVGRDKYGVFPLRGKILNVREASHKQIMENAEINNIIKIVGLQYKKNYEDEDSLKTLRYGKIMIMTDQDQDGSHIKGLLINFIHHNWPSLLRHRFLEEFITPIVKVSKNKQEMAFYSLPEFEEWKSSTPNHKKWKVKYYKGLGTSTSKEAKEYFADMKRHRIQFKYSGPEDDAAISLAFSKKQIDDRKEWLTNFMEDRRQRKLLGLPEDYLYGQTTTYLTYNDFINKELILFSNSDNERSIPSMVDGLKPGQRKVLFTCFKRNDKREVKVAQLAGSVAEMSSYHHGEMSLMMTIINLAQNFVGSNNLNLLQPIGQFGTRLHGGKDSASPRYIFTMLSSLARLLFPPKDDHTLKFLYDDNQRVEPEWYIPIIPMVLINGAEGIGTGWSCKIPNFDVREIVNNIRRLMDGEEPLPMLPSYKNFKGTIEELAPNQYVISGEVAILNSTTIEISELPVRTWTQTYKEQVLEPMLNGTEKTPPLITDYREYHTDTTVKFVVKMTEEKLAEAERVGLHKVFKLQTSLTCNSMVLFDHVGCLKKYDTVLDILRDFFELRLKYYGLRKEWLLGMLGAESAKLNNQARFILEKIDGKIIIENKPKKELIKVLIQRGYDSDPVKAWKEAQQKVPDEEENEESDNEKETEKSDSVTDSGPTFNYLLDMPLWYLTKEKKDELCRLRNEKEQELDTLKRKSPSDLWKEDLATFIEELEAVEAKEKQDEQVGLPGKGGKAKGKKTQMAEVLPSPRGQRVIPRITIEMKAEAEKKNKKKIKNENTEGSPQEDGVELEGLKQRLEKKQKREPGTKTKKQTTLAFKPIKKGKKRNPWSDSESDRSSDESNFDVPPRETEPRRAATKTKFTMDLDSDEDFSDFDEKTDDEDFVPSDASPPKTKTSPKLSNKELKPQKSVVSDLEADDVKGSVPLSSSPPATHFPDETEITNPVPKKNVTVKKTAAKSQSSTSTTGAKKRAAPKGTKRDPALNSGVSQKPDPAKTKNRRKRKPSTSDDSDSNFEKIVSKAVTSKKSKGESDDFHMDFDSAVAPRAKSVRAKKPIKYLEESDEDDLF

SMILES	inhibition [1]	inhibition [2]	Activity (Supercoiled DNA)	IC50 [3] [µM]	IC50 (MDA-MB-231 [4]) [µM]	IC50 (MCF7) [µM]	IC50 (HT-29) [µM]	inhibition (A549 [5])	Activity (A549 [6])	Activity (A549 [7])	Activity (A549 [8])	Activity (A549 [9])	Activity (MDA-MB-231 [10])	IC50 (A549 [11]) [µM]
COc1ccc(-c2ccc3ccc(OCCCCCCC(=O)NO)cc3n2)cc1I	Active; Observed As More Active Than Etoposide	Active	inactive	0.137	1.55	3.02	1.86	Active	Active; Exhibited Potent Effect	Active	Active	Not active; Result Signifies That Cell Death Induced Via Mitochondrial-Independent Pathways	Active	1.97
COc1ccc(-c2ccc3cc(OCCCCCC(=O)NO)ccc3n2)cc1	Active; Observed As More Active Than Etoposide	Active	inactive	0.0229	0.879	1.98	5.76	Active	Active; Exhibited Commendable Decrease In Mass Of 3D Sphere	Active	Active	Active; Result Signifies That Cell Death Induced Via Mitochondrial-Dependent Pathways	Active	0.702
